By pKd is commonly meant −log10 of the Kd, conventionally taken in molar units. A high value points to a small Kd.

pKd: −log10 of the molar value.

The record followed here is publication PMC11649914, “Transport mechanism of DgoT, a bacterial homolog of SLC17 organic anion transporters” (The EMBO Journal, 2024).

What all share (experiment): SSM electrophysiology, kobs of pre-steady state current vs concentration
Common to all, as to assay type: biochemical

In test [1] the target is T1, DgoT (Escherichia coli, UniProt A0A0H2Z574, E133Q).
T1 sequence (A0A0H2Z574 1-445 E133Q): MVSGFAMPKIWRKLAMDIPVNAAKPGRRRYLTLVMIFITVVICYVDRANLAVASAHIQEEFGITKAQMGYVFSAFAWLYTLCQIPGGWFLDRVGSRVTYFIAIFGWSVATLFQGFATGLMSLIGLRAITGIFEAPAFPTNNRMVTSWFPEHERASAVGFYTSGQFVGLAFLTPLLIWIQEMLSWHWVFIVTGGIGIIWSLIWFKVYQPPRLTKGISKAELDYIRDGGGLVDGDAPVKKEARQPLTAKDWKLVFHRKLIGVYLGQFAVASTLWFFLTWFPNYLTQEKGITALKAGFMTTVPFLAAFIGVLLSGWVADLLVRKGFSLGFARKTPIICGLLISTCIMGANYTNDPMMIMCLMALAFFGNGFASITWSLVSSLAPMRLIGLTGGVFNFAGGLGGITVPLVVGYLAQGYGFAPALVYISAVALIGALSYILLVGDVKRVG
From the text: (§1) SSM electrophysiology, kobs of pre-steady state current vs concentration on DgoT

Test [2] deals with T2, DgoT (Escherichia coli, UniProt A0A0H2Z574).
T2 sequence (A0A0H2Z574 1-445): T1 sequence (A0A0H2Z574 1-445 E133Q)
Excerpt: as §1

Test [3] has as its target T3, DgoT (Escherichia coli, UniProt A0A0H2Z574, D46N).
T3 sequence (A0A0H2Z574 1-445 D46N): T1 sequence (A0A0H2Z574 1-445 E133Q)
Excerpt: as §1

The target of test [4] is T4, DgoT (Escherichia coli, UniProt A0A0H2Z574, R126Q).
T4 sequence (A0A0H2Z574 1-445 R126Q): T1 sequence (A0A0H2Z574 1-445 E133Q)
Excerpt: as §1

Take `O=C(O)[C@H](O)[C@@H](O)[C@@H](O)[C@H](O)CO` [D-galactonate]: the pKd was 1.82 in test [1], 1.82 in test [2], 1.96 in test [3] and 1.66 in test [4].
